Assay results reported in patent US20210180138A1, “METHODS FOR PROGNOSIS AND TREATMENT OF SOLID TUMORS” (CUREWIZE HEALTH LTD., priority 2017, published 2021).

Tests used:
[1] = test system: prostate cancer PC3 cell line; assay: In-vivo xenograft model, sensitivity to FK866 by miR-451 expression; set-up: species or system mice; conditions: for change in tumor growth between non-treated and treated group: 15 mg/kg once a day for 5 days repeated weekly
Experimental: The effect of miR-451 expression levels on efficacy of NAMPT inhibitor was evaluated in an in-vivo xenograft mouse model as in Example 4A. The sensitivity of each prostate cancer cell line (miR-451, antagomiR-451 and scramble miR control) to FK866 treatment was examined in vivo. Twenty mice were injected with each cell line and were divided into two groups: 10 mice were treated with FK866 (15 mg/kg) once a day for 5 days repeated weekly and 10 served as controls, in which no NAMPT inhibitor was injected. The volume of the tumors was measured daily and mice were treated with FK866 from the day all tumors were clinically evident. Treatment with the drug started from day 13 and within 5 days of treatment a change in tumor size was observed between the antagomiR-451 group treated with FK866 and the antagomiR-451 receiving no treatment (FIG. 5A).

[2] = test system: prostate cancer (PC-3) cell line; assay: Cell viability, XTT tetrazolium colorimetric assay; format: cell-based; conditions: 24 hours, 1 nM, 10 nM and 100 nM, vs DMSO control
Experimental: (§1) FK866 is a potent NAMPT inhibitor that causes the depletion of intracellular NAD+ levels in the cell and ultimately induces apoptosis and cell death. To characterize the effect of FK866 on prostate cancer (PC-3), colon cancer (Caco-2) and breast cancer (MCF7) cell lines, the effects of FK866 on cell death were evaluated. Cells were either control cells, treated with DMSO only, or were treated for 24 hours with 1 nanomolar (nM), 10 nM and 100 nM of FK866, and cell viability was measured using an XTT tetrazolium colorimetric assay.

[3] = test system: colon cancer (Caco-2) cell line; assay: Cell viability, XTT tetrazolium colorimetric assay; format: cell-based; conditions: 24 hours, 1 nM, 10 nM and 100 nM, vs DMSO control
Experimental: as §1

[4] = test system: breast cancer (MCF7) cell line; assay: Cell viability, XTT tetrazolium colorimetric assay; format: cell-based; conditions: 24 hours, 1 nM, 10 nM and 100 nM, vs DMSO control
Experimental: as §1

miR-451 [5] = assay: miR-451 expression by RT-qPCR in stable transfected lines; format: cell-based
Experimental: The effect of miR-451 expression level on prostate cancer (PC-3), and breast cancer (MCF7) cell line tumor cells was evaluated in-vitro. Stable lines of each malignancy expressing miR-451 mimic and antagomiR-451 were obtained and transfected as in example 1. miR-451 expression levels in each cell line were validated by quantitative Real Time PCR (RT-qPCR). Total RNA was isolated from 10^7 cells using Qiagen RNeasy isolation kit according to the manufacturer's instruction (Qiagen, Hilden, Germany). 100 ng RNA was converted to cDNA using universal cDNA synthesis kit (Exiqon, Vedbaek, Denmark). RT-qPCR for the miR-451 was performed using Locked-nucleic Acid (LNA™) primers sets (Exiqon, Vedbaek, Denmark). 5S Ribosomal RNA was used as a reference gene. The RT-qPCR reactions were performed in duplicates on the LightCycler 480 (Roche, Rotkreuz, Switzerland) apparatus. The results were expressed as relative expression using the delta Ct method.

MCF7 cells = assay: In-vivo xenograft model, tumor growth by miR-451 expression; conditions: MCF7 xenograft in NSG mice; end of experiment; antagomiR-451 cells compared with miR-451 mimic
Experimental: (§2) The effect of miR-451 expression levels on tumor cell growth was evaluated in an in-vivo xenograft mice model using MCF7 cells and PC3 cells. Ten million cells harboring antagomiR-451 and miR-451 mimic were injected subcutaneously into the right flanks of 6-8 weeks-old immunodeficient NSG (NOD scid gamma) mice. Ten mice were injected with the MCF7 antagomiR-451 cell line and 11 mice were injected with the miR-451 mimic line. Ten mice were injected with the PC3 antagomiR-451 cell line and the PC3 miR-451 mimic cell line and 8 with the scrambled miR control cell line. The volume of the tumors was measured daily from the day the tumors were clinically evident in all mice.

PC3 cells = assay: as above; conditions: PC3 xenograft in NSG mice; end of experiment; antagomiR-451 cells compared with miR-451 mimic
Experimental: as §2

NAMPT = NAMPT protein expression by FACS in transfected cells; format: cell-based; conditions: PC-3, Caco-2 and MCF7 cell lines; 48 hours after transfection; compared to control scramble-miR cells
Experimental: (§3) A study was performed to determine if NAMPT is regulated by miR-451 in a representative cell line of each malignancy. Cells comprising prostate cancer (PC-3), colon cancer (Caco-2) and breast cancer (MCF7) cell lines were transiently transfected with a miR-451 mimic while “scrambled” miR-451 served as a control. The prostate cancer (PC-3), colon cancer (Caco-2), and breast cancer (MCF7) cells were obtained from ATCC and cultured according to ATCC growth recommendation. Two hundred pmol miR-451 mimic and 200 pmol scramble miR (IDT, Jerusalem, Israel) were transiently transfected by JETPRIME (Polyplus-transfection) into cells according to manufacturer's instructions.
One to two million transfected cells were collected 48 hours after transfection and fixed using 500 μl BD phosflow fix buffer I (BD Biosciences, San Jose, Calif., USA) for 15 minutes. Then, pellets were washed twice using PBS and resuspended in 500 μl methanol. Samples were incubated for 2 hours in −20° C. […] The cells were analyzed on flow cytometer (FACSCalibur, Becton Dickinson, Le Pont-De-Claix, France) using BD CellQuest™ Pro software.
FIG. 1 presents NAMPT protein expression level analyzed by FACS using a specific anti-NAMPT antibody in prostate cancer (PC-3), colon cancer (Caco-2) and breast cancer (MCF7) cell lines.

miR-451 [6] = assay: miR expression after transient transfection with miR-451 mimic; format: cell-based; conditions: PC-3, Caco-2, MCF7 cells transiently transfected, 200 pmol; compared to control cells transfected with scramble miR
Experimental: as §3
NAMPT protein expression was determined using FACS as follows: […]

O=C(/C=C/c1cccnc1)NCCCCC1CCN(C(=O)c2ccccc2)CC1 [FK866]
time of treatment until change in tumor size observed vs no treatment ([1]; PC3 antagomiR-451 group, treatment started from day 13, 15 mg/kg): ≤ 5 days
change in tumor growth between non-treated and treated group ([1]; mice injected with PC3 antagomiR-451 cells): major change in tumor growth
change in tumor growth between non-treated and treated group ([1]; mice injected with PC3 miR-451 mimic cells): moderate to almost no change in tumor growth
change in tumor growth between non-treated and treated group ([1]; mice injected with PC3 scramble miR control cells): moderate to almost no change in tumor growth
cell viability [2]: gradual decrease in cell viability
cell viability [3]: gradual decrease in cell viability
cell viability [4]: gradual decrease in cell viability

antagomiR-451: SEQ ID NO: 3 is the nucleotide sequence of antagomiR-451 (antisense AATGATCTGTAACGGTTT; listed as DNA, chemistry not given here)
decrease in miR-451 expression (miR-451 [5]; PC3 cells, compared to PC3 control cells): 67%
tumor volume (MCF7 cells): significant increase in tumor volume
tumor volume (PC3 cells): significant increase in tumor volume

miR-451 mimic: SEQ ID NO: 1 is the nucleotide sequence of miR-451 mimic (AAACCGUUACCAUUACUGAGUU; listed as RNA, chemistry not given here)
level in miR-451 (miR-451 [5]; MCF7 cells, mimic compared with MCF7 cells transfected with antagomiR-451): twice as high
increase in miR-451 expression (miR-451 [5]; PC3 cells, compared with control (PC3 cells transfected with miR scramble)): tenfold increase
NAMPT protein expression level (NAMPT): reduction in NAMPT expression
increase in the expression levels of the miR (miR-451 [6]): 3 fold
